Data on two compounds can be found in US20140193531A1, “Aqueous extracts of deschampsia antarctica” (Uxmal S.A, priority 2012, published 2014).

The subject of data set [1] is IL-6 secretion in TNFα-stimulated 3T3-L1 adipocytes. The data set can be described thus: TNFα-stimulated IL-6 secretion in 3T3-L1 adipocytes. Format: cell-based, Mouse. The conditions noted are these: data not shown. The procedure: Post-differentiation, D6/D7 adipocytes were treated with test material 4 h prior to the addition of TNFα at a final concentration of 10 ng/mL. Following overnight incubation of approximately 18 h, the supernatant media were removed and assayed for IL-6. IL-6 secreted into the medium in response to TNFα stimulation was quantified using the Quantikine® Mouse IL-6 Immunoassay kit Immunoassay kit with no modifications (R&D Systems, Minneapolis, Minn.). Experiments assessing the anti-inflammatory activity of the test samples were repeated a minimum of 2 independent times. For statistical analysis, the effects of test materials IL-6 secretion were normalized, respectively, to the TNFα positive control to generate IL-6 indexes. Differences among the treatments were determined by analysis of variance and student's least significant difference test without correction for multiple comparisons; the nominal 5% probability of a type I error was used. Ninety-five percent CI were computed using the ANOVA error mean square estimate of variance (Excel®, Microsoft, Redmond, Wash.).

Another data set relates to HaCaT cells. Format: cell-based, human. The procedure: For this assay, 100,000 cells were seeded in a 24-well plate at a total volume of 500 ul in a complete culture medium. After incubating for 24 hours at 37° C. in an atmosphere of 5% CO2, the cells were irradiated with different concentrations of UV light in an irradiation system inside a type 2 biosafety laminar flow hood. The system consisted of 2 florescent tubes, one UVA-emitting 36 W PL-L (320-400 nm) and one UVB-emitting 20 W TL (290-320 nm) (Philips, Eindhoven, the Netherlands). Both tubes were located 5 cm from the bottom of the well to produce homogeneous irradiation intensity. The irradiation intensity was monitored with radiometers for UVB (Solarmeter 6.2 digital UVB radiometer, Solartech Inc., Harrison Township, Mich.) and UVA (Tecpel, CHY-732, Taiwan). The HaCaT cells were irradiated at different time intervals (Table 5) to reach the different accumulative doses of UVA and UVB (Gao et al. 2007). After irradiation with UVA+UVB light, the cells were incubated for 24 hours and the viability of the cells was measured with the MTS assay.
In this assay, 100,000 cells were seeded in a 24-well plate. After incubating for 24 hours at 37° C. in an atmosphere of 5% de CO2, the cells were washed with PBS and incubated with AEDA doses of between 4.5 and 0.5 mg/ml previously diluted in PBS. […]

`C=C[C@@]1(C)CC(=O)[C@]2(O)[C@@]3(C)[C@@H](O)CCC(C)(C)[C@@H]3[C@H](O)[C@H](OC(C)=O)[C@@]2(C)O1` [Forskolin]: the “increase of IL-6 secretion above the TNFα positive control” value in data set [1] is reported as “over 100%”.

Consider `COc1cc(/C=C/C(=O)O)ccc1O` [ferulic acid], for which the “effect on irradiated keratinocytes at higher doses” value in the data set with HaCaT cells is given as “possible photocytotoxic effect”.
